Data from ChEMBL document CHEMBL4665768, “Monacycliones G-K and ent-Gephyromycin A, Angucycline Derivatives from the Marine-Derived Streptomyces sp. HDN15129” (J Nat Prod, 2020).
Structures can show the parent of a compound that is named as a salt.

Key:
HCT-116 = test: Cytotoxicity against human HCT-116 cells assessed as reduction in cell viability by SRB assay; type: functional, cell-based
PC-3 = test: Cytotoxicity against human PC-3 cells assessed as reduction in cell viability by SRB assay; type: functional, cell-based
ASPC1 = test: Cytotoxicity against human ASPC1 cells assessed as reduction in cell viability by SRB assay; type: functional, cell-based
U-87 MG = test: Cytotoxicity against human U87 cells assessed as reduction in cell viability by SRB assay; type: functional, cell-based, U-87MG ATCC
Bel-7402 = test: Cytotoxicity against human Bel-7402 cells assessed as reduction in cell viability by SRB assay; type: functional, cell-based
SH-SY5Y = test: Cytotoxicity against human SH-SY5Y cells assessed as reduction in cell viability by SRB assay; type: functional, cell-based
K562 = test: Cytotoxicity against human K562 cells assessed as reduction in cell viability by MTT assay; type: functional, cell-based
HL-60 = test: Cytotoxicity against human HL-60 cells assessed as reduction in cell viability by MTT assay; type: functional, cell-based

SMILES	IC50 (HCT-116)	IC50 (PC-3)	IC50 (ASPC1)	IC50 (U-87 MG)	IC50 (Bel-7402)	IC50 (SH-SY5Y)	IC50 (K562)	IC50 (HL-60)
CN[C@H]1CC[C@H](c2ccc3c(c2O)C(=O)c2cc(SC)c4cc(C)cc(O)c4c2C3=O)O[C@H]1C	> 10 µM	> 10 µM	> 10 µM	> 10 µM	> 10 µM	> 10 µM	> 10 µM	7.6 µM
CSc1cc2c(c3c1C[C@@](C)(O)CC3=O)C(=O)c1ccc([C@H]3CC[C@H](N(C)C)[C@H](C)O3)c(O)c1C2=O	10 µM	7.7 µM	7.1 µM	7.9 µM	10 µM	4.3 µM	7.1 µM	3.5 µM
COc1cccc2c1C(=O)c1c(O)c3c(c(O)c1C2=O)C[C@@](O)(C(=O)CO)C[C@@H]3O[C@H]1C[C@H](N)[C@H](O)[C@H](C)O1 [DOXORUBICIN HYDROCHLORIDE]	–	0.2 µM	0.2 µM	0.2 µM	0.3 µM	0.5 µM	–	–
